Data as given in ChEMBL document CHEMBL1153663, “Inhibition of human erythrocyte calpain I by novel quinolinecarboxamides” (Bioorg Med Chem Lett, 1995).

Key:
[1] = target: T1, Calpain-1 catalytic subunit (Homo sapiens) (UniProt P07384); experiment: In vitro inhibitory activity against human erythrocyte Calpain 1 at a concentration of 50 uM
T1 sequence (whole entry): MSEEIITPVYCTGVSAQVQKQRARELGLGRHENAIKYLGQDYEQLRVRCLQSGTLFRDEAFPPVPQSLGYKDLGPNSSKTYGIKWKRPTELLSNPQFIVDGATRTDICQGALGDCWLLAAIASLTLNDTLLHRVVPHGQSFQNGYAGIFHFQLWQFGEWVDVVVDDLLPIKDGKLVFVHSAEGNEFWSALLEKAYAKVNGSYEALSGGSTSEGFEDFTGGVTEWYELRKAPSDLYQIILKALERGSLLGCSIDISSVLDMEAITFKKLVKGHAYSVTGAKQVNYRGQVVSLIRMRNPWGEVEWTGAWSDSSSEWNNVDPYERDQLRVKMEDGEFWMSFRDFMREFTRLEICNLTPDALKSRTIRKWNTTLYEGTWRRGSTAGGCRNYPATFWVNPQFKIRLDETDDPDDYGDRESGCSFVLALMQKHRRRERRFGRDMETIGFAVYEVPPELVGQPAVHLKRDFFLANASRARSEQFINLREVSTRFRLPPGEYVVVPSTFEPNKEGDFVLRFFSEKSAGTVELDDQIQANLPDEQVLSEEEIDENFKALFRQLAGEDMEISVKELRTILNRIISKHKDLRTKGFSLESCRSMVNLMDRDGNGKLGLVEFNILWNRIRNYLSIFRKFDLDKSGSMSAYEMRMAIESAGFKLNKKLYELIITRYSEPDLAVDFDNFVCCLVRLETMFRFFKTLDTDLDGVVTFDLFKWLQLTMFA

[2] = target: T2, Calpain-1 catalytic subunit (Homo sapiens, UniProt P07384); experiment: In vitro inhibitory activity against human erythrocyte Calpain 1
T2 sequence (P07384 whole entry): T1 sequence (whole entry)

Cathepsin B = Cathepsin B (Homo sapiens, UniProt P07858); experiment: In vitro inhibitory activity against Cathepsin B
Procathepsin L = Procathepsin L (Homo sapiens, UniProt P07711); experiment: In vitro inhibitory activity against cathepsin L
Chain of Procathepsin L (P07711 whole entry): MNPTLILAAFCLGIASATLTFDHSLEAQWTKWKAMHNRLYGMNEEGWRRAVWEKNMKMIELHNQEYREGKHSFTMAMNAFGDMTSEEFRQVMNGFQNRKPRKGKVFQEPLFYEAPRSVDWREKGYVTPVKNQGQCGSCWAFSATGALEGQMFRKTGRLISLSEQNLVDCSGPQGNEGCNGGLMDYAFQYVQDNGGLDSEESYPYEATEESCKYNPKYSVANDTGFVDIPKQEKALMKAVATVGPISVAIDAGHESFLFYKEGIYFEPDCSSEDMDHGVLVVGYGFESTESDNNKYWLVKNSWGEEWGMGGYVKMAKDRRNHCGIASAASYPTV

| Compound | inhibition [1] [%] | IC50 [2] [µM] | also measured |
| --- | --- | --- | --- |
| Cc1cncc(C)c1-c1ccc2c(=O)c(C(N)=O)cn(-c3ccc(O)cc3Cl)c2c1 | < 10 |  |  |
| NC(=O)c1cn(-c2ccc(O)cc2Cl)c2cc(-c3ccoc3)ccc2c1=O |  | 2 |  |
| NC(=O)c1cn(-c2ccc(O)cc2Cl)c2cc(-c3cccnc3)ccc2c1=O |  | 10 |  |
| NC(=O)c1cn(-c2ccc(O)cc2)c2cc(-c3ccncc3)ccc2c1=O |  |  | IC50 (Cathepsin B): 32 µM; IC50 (Procathepsin L): 37 µM |
| CC(=O)N[C@@H](CC(C)C)C(=O)N[C@@H](CC(C)C)C(=O)N[C@H](C=O)CCCNC(=N)N [LEUPEPTIN] |  | 0.3 |  |
| Cc1cc(-n2cc(C(N)=O)c(=O)c3ccc(-c4ccncc4)cc32)cc(C)c1O | < 10 |  |  |
| NC(=O)c1cn(-c2ccc(O)cc2Cl)c2cc(-c3ccnc(F)c3)ccc2c1=O |  | 30 |  |
| O=C(NCCO)c1cn(-c2ccc(O)cc2)c2cc(-c3ccncc3)ccc2c1=O | < 10 |  |  |
| NC(=O)c1cn(-c2ccc(O)cc2F)c2cc(-c3ccncc3)ccc2c1=O |  | 7 |  |
| NC(=O)c1cn(-c2ccc(O)cc2Cl)c2cc(-c3ccncc3)ccc2c1=O |  | 0.5 | IC50 (Cathepsin B): 25 µM; IC50 (Procathepsin L): 22 µM |
| NC(=O)c1cn(-c2ccc(O)cc2Cl)c2cc(-c3ccncc3Cl)ccc2c1=O |  | 2 |  |
| NC(=O)c1cn(-c2ccc(O)cc2C(F)(F)F)c2cc(-c3ccncc3)ccc2c1=O |  | 20 |  |

More lines, main results first:

| inhibition [1] [%] | IC50 [2] [µM] | Compound | also measured |
| --- | --- | --- | --- |
| < 10 |  | NC(=O)c1cn(-c2ccc(O)cc2)c2ccccc2c1=O |  |
|  | 20 | O=C(O)c1cn(-c2ccc(O)cc2)c2cc(-c3ccncc3)ccc2c1=O |  |
|  | 30 | NC(=O)c1cn(-c2ccc(O)cc2Cl)c2cc(-c3ccccn3)ccc2c1=O |  |
| < 10 |  | CNC(=O)c1cn(-c2ccc(O)cc2)c2cc(-c3ccncc3)ccc2c1=O |  |
| < 10 |  | NC(=O)c1cn(-c2ccc(O)cc2)c2cc(-c3ccccc3)ccc2c1=O |  |
|  | 0.6 | NC(=O)c1cn(-c2ccc(O)cc2Cl)c2cc(-n3cccn3)ccc2c1=O |  |
|  | 2 | NC(=O)c1cn(-c2ccc(O)cc2Cl)c2cc(-c3cccnn3)ccc2c1=O |  |
| < 10 |  | CN(C)C(=O)c1cn(-c2ccc(O)cc2)c2cc(-c3ccncc3)ccc2c1=O |  |
| < 10 |  | O=C(NO)c1cn(-c2ccc(O)cc2)c2cc(-c3ccncc3)ccc2c1=O |  |
|  | 0.5 | Cc1cc(O)ccc1-n1cc(C(N)=O)c(=O)c2ccc(-c3ccncc3)cc21 |  |
